Here are results for 57 compounds from patent publication US9296716B2, “Androgen receptor ligands” (THE PROVOST, FELLOWS, FOUNDATION SCHOLARS, & THE OTHER …, priority 2011, dated 2016).

Where only a bound is given, the exact number is not on record here.

The first assay deals with T1, AR-LBD wt (Homo sapiens, UniProt P10275).
T1 sequence (P10275 669-900 limits assumed): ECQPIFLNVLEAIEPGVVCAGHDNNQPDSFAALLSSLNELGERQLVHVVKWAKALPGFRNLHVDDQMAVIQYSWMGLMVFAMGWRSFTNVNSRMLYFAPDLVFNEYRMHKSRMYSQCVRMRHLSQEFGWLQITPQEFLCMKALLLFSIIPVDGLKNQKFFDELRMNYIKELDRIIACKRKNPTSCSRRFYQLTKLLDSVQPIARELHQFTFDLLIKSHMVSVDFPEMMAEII
As to the kind of experiment: Lanthascreen TR-FRET AR coactivator (D11-FxxLF) assay, AR-LBD wt. Format: biochemical. Conditions: TR-FRET in agonist and antagonist mode.
Regarding `C/C(=N\NC(=O)c1cc2ccccc2cc1O)C1C(=O)c2ccccc2C1=O` [MDG603], the “type of AR antagonism (full / partial)” value was “full AR antagonists”.

The assay is the same for the next values; noted with them: TR-FRET, D11-FxxLF peptide, DHT = EC80; read-out: Activity (AR wt TR-FRET).
In the case of `CCOc1cc(/C=N/NC(=O)c2cc3ccccc3cc2O)ccc1O` [MDG481], the IC50 is greater than 100 µM.
For `O=C(N/N=C/c1cccnc1)c1cc2ccccc2cc1O` [MDG482], the IC50 was greater than 100 µM.
`COc1ccc(C(=O)NNC(=O)c2cc3ccccc3cc2O)cc1` [MDG484]: the IC50 was greater than 100 µM.
Take `O=C(N/N=C/c1cccc(O)c1O)c1ccccc1` [MDG485]: the IC50 was greater than 100 µM.
On to `O=C(N/N=C/c1cccc(O)c1O)c1ccccc1O` [MDG486], for which the IC50 was greater than 100 µM.
On the same count and under the same terms, the value for `O=C(N/N=C/c1ccc2ccccc2c1)c1ccccc1O` [MDG487] was greater than 100 µM; that for `CCOc1ccc(/C=N/NC(=O)c2cc3ccccc3cc2O)cc1O` [MDG488] was greater than 100 µM.
As for `COc1cc(/C=N/NC(=O)c2cc3ccccc3cc2O)cc(OC)c1O` [MDG489, 3-hydroxy-N′-(4-hydroxy-3,5-dimethoxybenzylidene)-2-naphthohydrazide], the IC50 is greater than 100 µM.
For the compound `O=C(N/N=C/c1ccccc1C(=O)O)c1cc2ccccc2cc1O` [MDG490], the IC50 was greater than 100 µM.
`Cc1ccccc1/C=N/NC(=O)c1cc2ccccc2cc1O` [MDG492]: the IC50 was greater than 100 µM.
For `CCN(CC)c1ccc(/C=N/NC(=O)c2cc3ccccc3cc2O)cc1` [MDG493], the IC50 was greater than 100 µM.
Regarding `COc1ccc(/C=N/NC(=O)c2cc3ccccc3cc2O)cc1O` [MDG494], the IC50 was greater than 100 µM.
With `O=C(N/N=C/c1cccc(OCc2ccccc2)c1)c1cc2ccccc2cc1O` [MDG495], the IC50 is greater than 100 µM.
Regarding `O=C(N/N=C/c1cccc(Cl)c1Cl)c1cc2ccccc2cc1O` [MDG496], the IC50 was greater than 100 µM.
On the same count and under the same terms, the value for `Cc1cccc(/C=N/NC(=O)c2cc3ccccc3cc2O)c1` [MDG497] was greater than 100 µM.
With `O=C(N/N=C/c1ccc(OCc2ccccc2)cc1)c1cc2c(ccc3ccccc32)o1` [MDG499], the IC50 is greater than 100 µM.
On the same count and under the same terms, as for `O=C(N/N=C/c1ccc(O)c(Br)c1)c1cc2c(ccc3ccccc32)o1` [MDG500], the figure is greater than 100 µM; as for `COc1cc(Br)cc(/C=N/NC(=O)c2cc3c(ccc4ccccc43)o2)c1O` [MDG501], greater than 100 µM.
Same read-out and setting: as for `CC(C)Oc1ccc(/C=N/NC(=O)c2cc3c(ccc4ccccc43)o2)cc1` [MDG502], the figure is greater than 100 µM; as for `COc1ccc(/C=N/NC(=O)c2cc3c(ccc4ccccc43)o2)c2ccccc12` [MDG503], greater than 100 µM.
Regarding `COc1ccc(/C=N/NC(=O)c2cc3c(ccc4ccccc43)o2)cc1C` [MDG504], the IC50 is greater than 100 µM.
In the case of `COc1cccc(/C=N/NC(=O)c2cc3c(ccc4ccccc43)o2)c1` [MDG505, N′-(3-methoxybenzylidene)naphtho[2,1-b]furan-2-carbohydrazide], the IC50 was greater than 100 µM.
`COc1ccc(/C=N/NC(=O)c2cc3c(ccc4ccccc43)o2)cc1O` [MDG507]: the IC50 is greater than 100 µM.
As for `CCCOc1ccc(/C=N/NC(=O)c2cc3c(ccc4ccccc43)o2)cc1OC` [MDG509], the IC50 is greater than 100 µM.
As for `CCCOc1ccc(/C=N/NC(=O)c2cc3c(ccc4ccccc43)o2)cc1OCC` [MDG510], the IC50 was greater than 100 µM.
Consider `COc1cc(/C=N/NC(=O)c2cc3c(ccc4ccccc43)o2)cc(OC)c1OC` [MDG511], for which the IC50 is greater than 100 µM.
With `CCOc1ccc(/C=N/NC(=O)c2cc3c(ccc4ccccc43)o2)cc1` [MDG512], the IC50 is greater than 100 µM.
For the compound `COc1c(Cl)cc(/C=N/NC(=O)c2cc3c(ccc4ccccc43)o2)cc1Cl` [MDG513], the IC50 was greater than 100 µM.
Same read-out and setting: as for `CCOc1c(Cl)cc(/C=N/NC(=O)c2cc3c(ccc4ccccc43)o2)cc1Cl` [MDG514], the figure is greater than 100 µM.
As for `COc1cc(/C=N/NC(=O)c2cc3c(ccc4ccccc43)o2)cc(Cl)c1OCc1ccccc1` [MDG515], the IC50 is greater than 100 µM.
The same measure, in the same setting: the value for `COc1cc(/C=N/NC(=O)c2cc3c(ccc4ccccc43)o2)c(Br)cc1O` [MDG516] was greater than 100 µM; that for `CCOc1cc(/C=N/NC(=O)c2cc3ccccc3o2)cc(I)c1OC` [MDG598] was greater than 100 µM; that for `COc1ccccc1/C=N/NC(=O)c1ccc2ccccc2c1O` [MDG599] was greater than 100 µM.
For `COc1cc2ccccc2cc1C(=O)N/N=C/c1ccccc1O` [MDG600], the IC50 was greater than 100 µM.
For `O=C(C/C=N/C=N/NC(=O)c1ccccc1O)c1ccccc1O` [MDG601], the IC50 is greater than 100 µM.
On to `O=C(N/N=C/c1cc2ccccc2cc1O)c1ccc(C(=O)N/N=C/c2cc3ccccc3cc2O)cc1` [MDG602], for which the IC50 was greater than 100 µM.
For the compound `C/C(=N\NC(=O)c1cc2ccccc2cc1O)C1C(=O)c2ccccc2C1=O` [MDG603], the IC50 came out at 11.3 ± 2.6 µM.
`C/C(=N\NC(=O)c1cc2ccccc2cc1O)c1ccco1` [MDG604]: the IC50 was greater than 100 µM.
The same measure, in the same setting: as for `O=C(N/N=C/c1cccc2ccccc12)c1cc2ccccc2cc1O` [MDG607], the figure is greater than 100 µM.
The same measure, in the same setting: as for `Cc1ccc(O)c(/C=N/NC(=O)c2cc3ccccc3cc2O)c1` [MDG609], the figure is greater than 100 µM; as for `CC(C)(C)c1ccc(O)c(/C=N/NC(=O)c2cc3ccccc3cc2O)c1` [MDG610], greater than 100 µM; as for `O=C(N/N=C/c1cc(I)ccc1O)c1cc2ccccc2cc1O` [MDG613], greater than 100 µM.
For `COc1cc(Cl)cc(/C=N/NC(=O)c2cc3ccccc3cc2O)c1O` [MDG615], the IC50 was greater than 100 µM.
For the compound `O=C(N/N=C/c1cccc(Cl)c1O)c1cc2ccccc2cc1O` [MDG618, 3-hydroxy-N′-(2-hydroxy-3-chlorobenzylidene)-2-naphthohydrazide], the IC50 was greater than 200 µM.
With `COc1ccccc1/C=N/NC(=O)c1cc2ccccc2cc1O` [MDG619], the IC50 is greater than 100 µM.
`COc1ccc(Br)cc1/C=N/NC(=O)c1cc2ccccc2cc1O` [MDG620]: the IC50 was greater than 100 µM.
As for `C/C(=N\NC(=O)c1cc2ccccc2cc1O)c1cc(Cl)ccc1O` [MDG621, 3-hydroxy-N′-[(1E)-1-(2-hydroxy-5-chlorophenyl)ethylidene]-2-naphthohydrazide], the IC50 was greater than 100 µM.
Turning to `O=C(N/N=C/c1cc(Cl)ccc1O)c1ccc2ccccc2c1` [MDG622], the IC50 was greater than 100 µM.
Take `O=C(N/N=C/c1ccc(Cl)c([N+](=O)[O-])c1)c1cc2ccccc2cc1O` [MDG623]: the IC50 is greater than 100 µM.
Regarding `O=C(N/N=C/c1ccc2ccccc2c1O)c1cc2ccccc2cc1O` [MDG624], the IC50 was greater than 100 µM.
Turning to `O=C(N/N=C/c1ccc2ccccc2c1)c1cc2ccccc2cc1O` [MDG625], the IC50 was greater than 100 µM.
Take `C/C(=N\NC(=O)c1cc2ccccc2cc1O)c1ccc2ccccc2c1` [MDG626]: the IC50 was greater than 100 µM.
With `O=C(N/N=C(\c1ccccc1)c1ccc2ccccc2c1)c1cc2ccccc2cc1O` [MDG627], the IC50 is greater than 100 µM.
The same measure, in the same setting: the value for `O=C(N/N=C/c1ccccc1)c1cc2ccccc2cc1O` [MDG628, 3-hydroxy-N′-benzylidene-2-naphthohydrazide] was greater than 100 µM.
On to `O=C(N/N=C/c1ccccc1[N+](=O)[O-])c1cc2ccccc2cc1O` [MDG631], for which the IC50 is greater than 100 µM.
As for `Nc1ccccc1/C=N/NC(=O)c1cc2ccccc2cc1O` [MDG632], the IC50 is greater than 100 µM.
On the same count and under the same terms, the value for `O=C(N/N=C/c1cc(Cl)ccc1[N+](=O)[O-])c1cc2ccccc2cc1O` [MDG633] was greater than 100 µM.
